Reference: US20180327367A1, “MACROCYCLIC BROAD SPECTRUM ANTIBIOTICS” (priority 2015, published 2018)
≈ marks a conversion by molar mass, not a printed value. Like-named read-outs stand apart in the source and are kept apart here.

What was measured:
[1] = molecular target: T1, SpsB (Staphylococcus aureus signal peptidase) (Staphylococcus aureus, UniProt P0A070); assay: cell-based; format: biochemical; settings: SpsB IC50, whole-cell S. aureus (USA300 background, overexpressing SpsB) as SpsB source; fluorogenic peptide substrate, kinetic read 30 min
T1 construct: This assay uses a suspension of Staphylococcus aureus cells as a source of SpsB instead of recombinant SpsB protein; endogenous in cells; host or cells: S. aureus, USA300 background, overexpressing SpsB (whole-cell suspension from frozen pellets)
T1 sequence (P0A070 whole entry): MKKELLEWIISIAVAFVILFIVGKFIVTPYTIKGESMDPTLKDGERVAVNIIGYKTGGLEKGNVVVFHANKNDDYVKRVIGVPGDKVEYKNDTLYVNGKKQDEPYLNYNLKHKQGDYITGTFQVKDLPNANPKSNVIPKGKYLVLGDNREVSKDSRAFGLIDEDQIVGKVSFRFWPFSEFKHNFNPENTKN
Summary of the method: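 Whole S. aureus cells (USA300, overexpressing SpsB) in PBS with MgCl2, CaCl2 and 0.1% Tween-80 served as enzyme source, mixed with 20 μM stock of (Dabcyl)βAla-KPAKAAE(Edans) substrate before use. Fluorescence (ex 340/em 490 nm) read kinetically over 30 min. IC50 from reaction rate versus 11-point inhibitor concentration.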

[2] = system: Escherichia coli ATCC 25922; assay: Minimum inhibitory concentration, broth micro-dilution (CLSI), E. coli; format: cell-based; settings: Escherichia coli, ATCC25922, 22 h, 35° C., 22 hours
[3] = system: Methicillin Resistant Staphylococcus aureus strain USA 300, NRS384; assay: Minimum inhibitory concentration, broth micro-dilution (CLSI), S. aureus; format: cell-based; settings: Staphylococcus aureus, MRSA / NRS 384 / USA300, 22 h, 35° C., 22 hours
Summary of the method: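 Colonies grown 20 hours at 35° C were suspended in cation-adjusted Mueller Hinton Broth with 0.002% Tween-80. Cells were then added to 2-fold compound dilutions starting at 4 or 0.5 μg/mL, at OD600 0.0005.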

[4] = system: Escherichia coli MC4100 harboring the IMP4213 (E. coli IMP); assay: microbe, parasite or virus in culture; format: cell-based; settings: Escherichia coli, 22 h, read-out: MIC (μg/mL) E. coli IMP, E. coli MC4100 IMP4213, increased outer-membrane permeability; 35° C., 22 hours
Summary of the method: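 Broth micro-dilution per CLSI in cation-adjusted Mueller Hinton Broth with 0.002% Tween-80; E. coli MC4100 carries IMP4213, raising outer-membrane permeability. Compounds tested as 2-fold serial dilutions (10 concentrations) from 4 μg/mL (protocol 2) or 0.5 μg/mL (protocol 3); inoculum OD600 0.0005, 35° C for 22 hours.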

[5] = E. coli ATCC 25922, read-out: MIC (μg/mL) E. coli
[6] = MRSA USA 300 NRS384, read-out: MIC (μg/mL) S. aureus
[7] = read-out: MIC (μg/mL) E. coli, E. coli ATCC 25922
[8] = read-out: MIC (μg/mL) S. aureus, MRSA USA 300 NRS384

Row | SMILES | IC50 [1] [nM] | MIC [2, 5] [µg/mL] | MIC [3, 6] [µg/mL] | MIC [4] [µg/mL] | MIC [2, 7] [µg/mL] | MIC [3, 8] [µg/mL]
1 | Cc1cc(C(C)(C)C)ccc1C(=O)N[C@@H](CCN)C(=O)N(C)[C@@H]1C(=O)N[C@@H](C)C(=O)N[C@H](C(=O)NCC#N)Cc2ccc(OCCN)c(c2)-c2cc1ccc2OCCN [Compound 266] | 2.1 | 3.5 (≈ 4.31 µM) | 0.5 (≈ 0.616 µM) | 0.083 (≈ 0.102 µM) | – | –
2 | CCCCCCCOc1ccc(C(=O)N[C@@H](CCN)C(=O)N(C)[C@@H]2C(=O)N[C@@H](C)C(=O)N[C@H](C(=O)NCC#N)Cc3ccc(OCCN)c(c3)-c3cc2ccc3OCCN)c(Cl)c1 [Compound 267] | 0.63 | – | – | 0.012 (≈ 0.0135 µM) | 0.13 (≈ 0.146 µM) | 0.027 (≈ 0.0303 µM)
3 | CCCCCCCOc1ccc(C(=O)N[C@@H](CCN)C(=O)N(C)[C@@H]2C(=O)N[C@@H](C)C(=O)N[C@H](C(=O)NCC#N)Cc3ccc(OCCN)c(c3)-c3cc2ccc3OCCN)c(C)c1 [Compound 268] | 0.86 | 0.22 (≈ 0.253 µM) | 0.035 (≈ 0.0402 µM) | < 0.0039 | – | –
4 | CCCCOc1ccc(C(=O)N[C@@H](CCN)C(=O)N(C)[C@@H]2C(=O)N[C@@H](C)C(=O)N[C@H](C(=O)NCC#N)Cc3ccc(OCCN)c(c3)-c3cc2ccc3OCCN)c(Cl)c1 [Compound 269] | 1.2 | 1 (≈ 1.18 µM) | 0.25 (≈ 0.295 µM) | 0.023 (≈ 0.0271 µM) | – | –
5 | CCCCCOc1ccc(C(=O)N[C@@H](CCN)C(=O)N(C)[C@@H]2C(=O)N[C@@H](C)C(=O)N[C@H](C(=O)NCC#N)Cc3ccc(OCCN)c(c3)-c3cc2ccc3OCCN)c(Cl)c1 [Compound 270] | 0.89 | 0.63 (≈ 0.73 µM) | 0.094 (≈ 0.109 µM) | 0.016 (≈ 0.0186 µM) | – | –
6 | CCCCCCOc1ccc(C(=O)N[C@@H](CCN)C(=O)N(C)[C@@H]2C(=O)N[C@@H](C)C(=O)N[C@H](C(=O)NCC#N)Cc3ccc(OCCN)c(c3)-c3cc2ccc3OCCN)c(Cl)c1 [Compound 271] | 1.1 | 0.31 (≈ 0.354 µM) | 0.047 (≈ 0.0536 µM) | 0.016 (≈ 0.0183 µM) | – | –
7 | CCCCCCCCOc1ccc(C(=O)N[C@@H](CCN)C(=O)N(C)[C@@H]2C(=O)N[C@@H](C)C(=O)N[C@H](C(=O)NCC#N)Cc3ccc(OCCN)c(c3)-c3cc2ccc3OCCN)c(Cl)c1 [Compound 272] | 0.7 | 0.13 (≈ 0.144 µM) | 0.047 (≈ 0.052 µM) | 0.0078 (≈ 0.00862 µM) | – | –
8 | CCCCCCCOc1ccc(C(=O)N[C@@H](CCN)C(=O)N(C)[C@@H]2C(=O)N[C@@H](C)C(=O)N[C@H](C(=O)NCC#N)Cc3ccc(OCCN)c(c3)-c3cc2ccc3OCCN)c(C(F)(F)F)c1 [Compound 273] | 0.6 | 0.5 (≈ 0.541 µM) | 0.031 (≈ 0.0335 µM) | 0.016 (≈ 0.0173 µM) | – | –
9 | Cc1cc(OCCC(C)C)ccc1C(=O)N[C@@H](CCN)C(=O)N(C)[C@@H]1C(=O)N[C@@H](C)C(=O)N[C@H](C(=O)NCC#N)Cc2ccc(OCCN)c(c2)-c2cc1ccc2OCCN [Compound 274] | 0.79 | 1.3 (≈ 1.54 µM) | 0.13 (≈ 0.154 µM) | 0.02 (≈ 0.0238 µM) | – | –
10 | Cc1cc(OCC2CCCCC2)ccc1C(=O)N[C@@H](CCN)C(=O)N(C)[C@@H]1C(=O)N[C@@H](C)C(=O)N[C@H](C(=O)NCC#N)Cc2ccc(OCCN)c(c2)-c2cc1ccc2OCCN [Compound 275] | 0.55 | 0.38 (≈ 0.438 µM) | 0.063 (≈ 0.0726 µM) | 0.014 (≈ 0.0161 µM) | – | –
11 | Cc1cc(OCC(C)C)ccc1C(=O)N[C@@H](CCN)C(=O)N(C)[C@@H]1C(=O)N[C@@H](C)C(=O)N[C@H](C(=O)NCC#N)Cc2ccc(OCCN)c(c2)-c2cc1ccc2OCCN [Compound 276] | 1.8 | 2 (≈ 2.42 µM) | 0.58 (≈ 0.7 µM) | 0.031 (≈ 0.0374 µM) | – | –
12 | Cc1cc(OCCC(C)(C)C)ccc1C(=O)N[C@@H](CCN)C(=O)N(C)[C@@H]1C(=O)N[C@@H](C)C(=O)N[C@H](C(=O)NCC#N)Cc2ccc(OCCN)c(c2)-c2cc1ccc2OCCN [Compound 277] | 1.1 | 1 (≈ 1.17 µM) | 0.063 (≈ 0.0736 µM) | 0.012 (≈ 0.014 µM) | – | –
13 | Cc1cc(OCC(C)(C)C)ccc1C(=O)N[C@@H](CCN)C(=O)N(C)[C@@H]1C(=O)N[C@@H](C)C(=O)N[C@H](C(=O)NCC#N)Cc2ccc(OCCN)c(c2)-c2cc1ccc2OCCN [Compound 280] | 2 | 0.63 (≈ 0.748 µM) | 0.13 (≈ 0.154 µM) | 0.027 (≈ 0.0321 µM) | – | –
14 | CCCCCCCOc1ccc(C(=O)N[C@@H](CCCN)C(=O)N(C)[C@@H]2C(=O)N[C@@H](C)C(=O)N[C@H](C(=O)NCC#N)Cc3ccc(OCCN)c(c3)-c3cc2ccc3OCCN)c(C)c1 [Compound 281] | 0.75 | 0.25 (≈ 0.283 µM) | 0.023 (≈ 0.026 µM) | 0.0078 (≈ 0.00882 µM) | – | –
15 | CCCCCCCOc1ccc(C(=O)N[C@@H](CCCN)C(=O)N(C)[C@@H]2C(=O)N[C@@H](C)C(=O)N[C@H](C(=O)NCC#N)Cc3ccc(OCCN)c(c3)-c3cc2ccc3OCCN)c(Cl)c1 [Compound 282] | 0.71 | 0.25 (≈ 0.276 µM) | 0.016 (≈ 0.0177 µM) | 0.0078 (≈ 0.00862 µM) | – | –
16 | CCCCC#CCOc1ccc(C(=O)N[C@@H](CCN)C(=O)N(C)[C@@H]2C(=O)N[C@@H](C)C(=O)N[C@H](C(=O)NCC#N)Cc3ccc(OCCN)c(c3)-c3cc2ccc3OCCN)c(Cl)c1 [Compound 283] | 0.87 | 1 (≈ 1.13 µM) | 0.063 (≈ 0.0711 µM) | 0.012 (≈ 0.0135 µM) | – | –
17 | C#CCC(C)(C)COc1ccc(C(=O)N[C@@H](CCN)C(=O)N(C)[C@@H]2C(=O)N[C@@H](C)C(=O)N[C@H](C(=O)NCC#N)Cc3ccc(OCCN)c(c3)-c3cc2ccc3OCCN)c(C)c1 [Compound 284] | 0.82 | – | – | 0.012 (≈ 0.0139 µM) | 1 (≈ 1.15 µM) | 0.13 (≈ 0.15 µM)
18 | CCCC(C)(C)COc1ccc(C(=O)N[C@@H](CCN)C(=O)N(C)[C@@H]2C(=O)N[C@@H](C)C(=O)N[C@H](C(=O)NCC#N)Cc3ccc(OCCN)c(c3)-c3cc2ccc3OCCN)c(C)c1 [Compound 288] | 1.1 | 0.25 (≈ 0.287 µM) | 0.063 (≈ 0.0724 µM) | 0.0078 (≈ 0.00896 µM) | – | –
19 | Cc1cc(OCC2(C)CCCCC2)ccc1C(=O)N[C@@H](CCN)C(=O)N(C)[C@@H]1C(=O)N[C@@H](C)C(=O)N[C@H](C(=O)NCC#N)Cc2ccc(OCCN)c(c2)-c2cc1ccc2OCCN [Compound 289] | 0.93 | 0.25 (≈ 0.283 µM) | 0.031 (≈ 0.0351 µM) | 0.0078 (≈ 0.00884 µM) | – | –
20 | CCCCCCCOc1cc(Cl)c(C(=O)N[C@@H](CCN)C(=O)N(C)[C@@H]2C(=O)N[C@@H](C)C(=O)N[C@H](C(=O)NCC#N)Cc3ccc(OCCN)c(c3)-c3cc2ccc3OCCN)c(Cl)c1 [Compound 290] | 1.2 | – | – | 0.012 (≈ 0.013 µM) | 0.38 (≈ 0.411 µM) | 0.063 (≈ 0.0681 µM)
21 | CCCCCCCOc1cc(F)c(C(=O)N[C@@H](CCN)C(=O)N(C)[C@@H]2C(=O)N[C@@H](C)C(=O)N[C@H](C(=O)NCC#N)Cc3ccc(OCCN)c(c3)-c3cc2ccc3OCCN)c(Cl)c1 [Compound 291] | 1.3 | 0.19 (≈ 0.209 µM) | 0.063 (≈ 0.0693 µM) | 0.0078 (≈ 0.00859 µM) | – | –
22 | CCCCCCCOc1cc(C)c(C(=O)N[C@@H](CCN)C(=O)N(C)[C@@H]2C(=O)N[C@@H](C)C(=O)N[C@H](C(=O)NCC#N)Cc3ccc(OCCN)c(c3)-c3cc2ccc3OCCN)c(C)c1 [Compound 292] | 1.2 | 0.38 (≈ 0.43 µM) | 0.047 (≈ 0.0532 µM) | 0.0078 (≈ 0.00882 µM) | – | –
23 | CCCCCCCOc1c(F)cc(C(=O)N[C@@H](CCN)C(=O)N(C)[C@@H]2C(=O)N[C@@H](C)C(=O)N[C@H](C(=O)NCC#N)Cc3ccc(OCCN)c(c3)-c3cc2ccc3OCCN)cc1Cl [Compound 293] | 1.5 | 0.38 (≈ 0.418 µM) | 0.063 (≈ 0.0693 µM) | < 0.0039 | – | –
24 | CCCCCCCOc1ccc(C(=O)N[C@@H](CCN)C(=O)N(C)[C@@H]2C(=O)N[C@@H](C)C(=O)N[C@H](C(=O)NCC#N)Cc3ccc(OCCN)c(c3)-c3cc2ccc3OCCN)c2ccccc12 [Compound 295] | 0.69 | 0.13 (≈ 0.143 µM) | 0.031 (≈ 0.0342 µM) | < 0.0039 | – | –
25 | CCCCCCOCc1ccc(C(=O)N[C@@H](CCN)C(=O)N(C)[C@@H]2C(=O)N[C@@H](C)C(=O)N[C@H](C(=O)NCC#N)Cc3ccc(OCCN)c(c3)-c3cc2ccc3OCCN)c(C)c1 [Compound 298] | 0.82 | 1 (≈ 1.15 µM) | 0.063 (≈ 0.0724 µM) | 0.0078 (≈ 0.00896 µM) | – | –
26 | CCCCCCCOc1cc(C)c(C(=O)N[C@@H](CCN)C(=O)N(C)[C@@H]2C(=O)N[C@@H](C)C(=O)N[C@H](C(=O)NCC#N)Cc3ccc(OCCN)c(c3)-c3cc2ccc3OCCN)c(Cl)c1 [Compound 299] | 1.1 | 0.5 (≈ 0.553 µM) | 0.094 (≈ 0.104 µM) | 0.016 (≈ 0.0177 µM) | – | –
27 | CCCCc1ccc(Oc2ccc(C(=O)N[C@@H](CCN)C(=O)N(C)[C@@H]3C(=O)N[C@@H](C)C(=O)N[C@H](C(=O)NCC#N)Cc4ccc(OCCN)c(c4)-c4cc3ccc4OCCN)c(C)c2)cc1 [Compound 303] | 0.93 | 0.19 (≈ 0.21 µM) | 0.047 (≈ 0.052 µM) | 0.012 (≈ 0.0133 µM) | – | –
28 | Cc1nc(Oc2ccc(CC(C)C)cc2)ncc1C(=O)N[C@@H](CCN)C(=O)N(C)[C@@H]1C(=O)N[C@@H](C)C(=O)N[C@H](C(=O)NCC#N)Cc2ccc(OCCN)c(c2)-c2cc1ccc2OCCN [Compound 304] | 0.68 | 1 (≈ 1.1 µM) | 0.047 (≈ 0.0519 µM) | 0.016 (≈ 0.0177 µM) | – | –
